{"source": "patent US20250082656A1", "about": "“DOSAGE REGIMENS FOR TREATMENT OF DENGUE INFECTION” (Atea Pharmaceuticals, Inc., priority 2022, published 2025)", "key": {"[1]": {"assay": "Plasma PK after single oral dose of AT-752, monkeys", "type": "in vivo, cynomolgus monkeys", "conditions": "monkeys, oral 300 mg/kg or 60 mg/kg", "description": "Male cynomolgus monkeys were administered 300 mg/kg Compound 2 (AT-752). Blood samples were collected up to 24 hrs. post dose, plasma separated and analyzed for Compound 1 (AT-281), Compound 3 (AT-551), and Compound 6 (AT-273) by LC-MS/MS. Data are express as mean+/−SD (n=3-5/time point). The x-axis is time post the dose measured in hours and the y-axis is the plasma concentration of the metabolites measured in nanomoles/mL). The experimental procedure is provided in Example 14.\nMale non-naïve cynomolgus monkeys (Hainan Jingang Laboratory Animal Co. Ltd., China), at least 2 kg body weight, were individually housed during the study in stainless steel mesh cages, provided ad libitum access to RO water, fed twice daily (except on the day of dosing when they were fed once) with ˜60 g Certified Monkey Diet each feed (Beijing Vital Keao Feed Co., Ltd., Beijing, China) and given daily treats of fresh fruit. They (n=5) were administered a dose of Compound 2 (AT-752) at 300 mg/kg in 40% PEG400, 10% solutol HS15, 50% 100 mM citrate buffer, pH 4.5 (v/v) by oral gavage, and blood samples (˜0.5 mL) were collected at 1, 2, 4, 8, 12 and 24 h post dose. Plasma was separated at each time point for pharmacokinetics, and stored at −70° C. […] Separately, three monkeys were given an oral dose of Compound 2 (AT-752) as powder in capsules at 60 mg/kg ([…] (AT-281) equivalent dose of 55 mg/kg), and blood samples collected at 12, 24 and 48 h post dose.\n(§1) Pharmacokinetic measurements for FIGS. 11, 12, 13, 14, and 15 were analyzed using LC-MS/MS according to the protocol described herein. Plasma samples were prepared for MS analysis by adding internal standards and extracting with 20 volumes chilled ACN. After vortex (800 rpm for 10 min) and centrifugation (4,000 rpm, 15 min, 4° C.), the supernatants (25 μL) were diluted with an equal volume of H2O, mixed and spun again. After adding internal standards, the PBMC samples (10^6 cells) were lyzed with 300 μL MeOH/H2O (70:30, v/v) and 40 mM dibutylammonium acetate (DBAA), mixed by vortex and centrifuged (12,000 rpm, 15 min, 4° C.). Aliquots of the supernatants (35 μL) were dried under nitrogen and reconstituted in H2O, then mixed and spun again. […] A binary nonlinear gradient with mobile phases A (0.1% formic acid in water) and B (0.1% formic acid in ACN) were used to elute samples at 0.8 mL/min, with a run time of 5 min. […] A binary nonlinear gradient with mobile phases A (0.001% NHr H2O, 0.18 mM DBAA in H2O) and B (10 mM N,N-dimethyl-hexylamine, 3 mM NH4OAc in ACN/H2O (50.50, v/v)) were used to elute samples at 0.5 mL/min, with a run time of 3 min. Standards in 50% MeOH were used for calibration. […] Internal standards (ISS) as described previously (Good et al., Preclinical evaluation of AT-527, a novel guanosine nucleotide prodrug with potent, pan-genotypic activity against hepatitis C virus. PLos One 15:e02271045) were used to correct for variations in recovery.\n(§2) Data analysis of the pharmacokinetic data generated according to Example 21 and presented in FIGS. 11, 12, 13, 14, and 15 was analyzed according to the procedure described herein. Plasma concentrations of Compound 1 (AT-281), Compound 3 (AT-551) and Compound 6 (AT-273) were subjected to non-compartmental pharmacokinetic analysis using Phoenix WinNonlin software (version 6.3 or above, Pharsight, Mountain View, CA). The linear/log trapezoidal rule was applied in obtaining the PK parameters."}, "DENV-2 D2Y98P": {"test_system": "DENV-2 D2Y98P", "type": "in vivo, AG129 mice"}, "[2]": {"assay": "Plasma stability, human plasma", "conditions": "2 μM, 37° C."}, "[3]": {"conditions": "SD rat plasma"}, "[4]": {"assay": "Safety study in humans (SAD and MAD cohorts)", "type": "in vivo, human", "description": "Safety assessments including adverse events, standard clinical laboratory tests, vital sign measurements, electrocardiograms, and physical examinations were performed."}, "[5]": {"assay": "Pharmacokinetic study in SAD cohorts", "type": "in vivo, human", "conditions": "South/Southeast/East Asian versus mostly Caucasian cohorts, 1000 mg", "description": "as §1, §2"}, "[6]": {"assay": "Plasma stability, cynomolgus monkey plasma", "conditions": "2 μM, 37° C."}, "[7]": {"conditions": "MAD 750 mg BID × 4 days plus one dose Day 5, 6 patients"}, "[8]": {"conditions": "MAD 750 mg TID × 4 days plus one dose Day 5, 6 patients"}, "[9]": {"conditions": "MAD 1000 mg QD × 7 days, 6 patients"}, "[10]": {"conditions": "SAD 1000 mg fasting, 6 patients"}, "[11]": {"conditions": "SAD 1000 mg, South/Southeast/East Asian origin, 6 patients"}, "[12]": {"conditions": "SAD 1500 mg fasting, 6 patients"}}, "data": [{"smiles": "CNc1nc(N)nc2c1ncn2[C@@H]1O[C@H](CO[P@](=O)(N[C@@H](C)C(=O)OC(C)C)Oc2ccccc2)[C@@H](O)[C@@]1(C)F", "note": "[Compound 2, isopropyl ((R)-(((2R,3R,4R,5R)-5-(2-amino-6-(methylamino)-9H-purin-9-yl)-4-fluoro-3-hydroxy-4-methyltetrahydrofuran-2-yl)methoxy)(phenoxy)phosphoryl)-L-alaninate]", "values": [{"measurement": "unusual or adverse clinical signs", "setting": "[1]", "result": "no such signs noted"}, {"measurement": "health scores versus vehicle control group", "setting": "DENV-2 D2Y98P; Day 4 to Day 9 pi, p<0.001 by t-test", "result": "significantly better health scores"}, {"measurement": "Viremia versus vehicle only group", "setting": "DENV-2 D2Y98P; Day 6 pi, 1000 mg/kg loading, 500 mg/kg BID 7 days oral, p=0.000014 by t-test", "result": "significantly lower than the vehicle only group"}, {"measurement": "weight loss versus vehicle control mice", "setting": "DENV-2 D2Y98P; Days 5, 7 and 8 pi, p<0.001 by t-test", "result": "significantly reduced weight loss"}, {"measurement": "spleen viral load versus control group", "setting": "DENV-2 D2Y98P; by Day 7 pi", "result": "not statistically different"}, {"measurement": "Viremia", "setting": "DENV-2 D2Y98P; by Day 8 pi, virus still measurable in all surviving controls, p=0.0045", "result": "cleared in all treated animals"}, {"measurement": "survival (Kaplan-Meier) versus vehicle control group", "setting": "DENV-2 D2Y98P; p=0.0004, Mantel-Cox log-rank test", "result": "significantly improved the survival"}, {"measurement": "% of starting concentration remained after 120 min of incubation", "setting": "[2]", "result": 93.5, "unit": "%"}, {"measurement": "drug remaining at the first time point (10 min of incubation)", "setting": "[3]", "result": "no drug remaining"}, {"measurement": "Headache, subjects reporting", "setting": "[4]; [7]", "result": 1}, {"measurement": "Nausea, subjects reporting", "setting": "[4]; [7]", "result": 1}, {"measurement": "Vomiting, subjects reporting", "setting": "[4]; [7]", "result": 1}, {"measurement": "Headache, subjects reporting", "setting": "[4]; [8]", "result": 0}, {"measurement": "Nausea, subjects reporting", "setting": "[4]; [8]", "result": 0}, {"measurement": "Vomiting, subjects reporting", "setting": "[4]; [8]", "result": 0}, {"measurement": "Headache, subjects reporting", "setting": "[4]; [9]", "result": 0}, {"measurement": "Nausea, subjects reporting", "setting": "[4]; [9]", "result": 0}, {"measurement": "Vomiting, subjects reporting", "setting": "[4]; [9]", "result": 0}, {"measurement": "Headache, subjects reporting", "setting": "[4]; SAD 250 mg fasting, 6 patients", "result": 0}, {"measurement": "Nausea, subjects reporting", "setting": "[4]; SAD 250 mg fasting, 6 patients", "result": 0}, {"measurement": "Vomiting, subjects reporting", "setting": "[4]; SAD 250 mg fasting, 6 patients", "result": 0}, {"measurement": "Headache, subjects reporting", "setting": "[4]; SAD 500 mg fasting, 7 patients", "result": 2}, {"measurement": "Nausea, subjects reporting", "setting": "[4]; SAD 500 mg fasting, 7 patients", "result": 0}, {"measurement": "Vomiting, subjects reporting", "setting": "[4]; SAD 500 mg fasting, 7 patients", "result": 0}, {"measurement": "Headache, subjects reporting", "setting": "[4]; SAD 500 mg fed, 7 patients", "result": 4}, {"measurement": "Nausea, subjects reporting", "setting": "[4]; SAD 500 mg fed, 7 patients", "result": 1}, {"measurement": "Vomiting, subjects reporting", "setting": "[4]; SAD 500 mg fed, 7 patients", "result": 0}, {"measurement": "Headache, subjects reporting", "setting": "[4]; [10]", "result": 1}, {"measurement": "Nausea, subjects reporting", "setting": "[4]; [10]", "result": 1}, {"measurement": "Vomiting, subjects reporting", "setting": "[4]; [10]", "result": 1}, {"measurement": "Headache, subjects reporting", "setting": "[4]; [11]", "result": 0}, {"measurement": "Nausea, subjects reporting", "setting": "[4]; [11]", "result": 0}, {"measurement": "Vomiting, subjects reporting", "setting": "[4]; [11]", "result": 0}, {"measurement": "Headache, subjects reporting", "setting": "[4]; [12]", "result": 2}, {"measurement": "Nausea, subjects reporting", "setting": "[4]; [12]", "result": 1}, {"measurement": "Vomiting, subjects reporting", "setting": "[4]; [12]", "result": 2}, {"measurement": "tolerability", "setting": "[4]; healthy subjects, SAD 250-1500 mg and MAD cohorts, oral", "result": "well tolerated"}, {"measurement": "serious adverse events or discontinuations due to adverse events", "setting": "[4]; healthy subjects, SAD and MAD cohorts", "result": "no serious adverse events or discontinuations due to adverse events were reported"}, {"measurement": "pharmacokinetic ethnic sensitivity", "setting": "[5]", "result": "absence of pharmacokinetic ethnic sensitivity"}, {"measurement": "% of starting concentration remained after 120 min of incubation", "setting": "[6]", "result": 98.2, "unit": "%"}]}]}
